Laboratory results from patent publication US20150299219A1, “BICYCLIC PYRAZOLONE COMPOUNDS AND METHODS OF USE” (Calitor Sciences, LLC, priority 2014, published 2015).

What was measured:
[1] = Compound stability in human liver microsomes; type: in vitro ADME; conditions: for half-life: pH 7.4, 0.5 mg protein/mL; for half-life / T1/2: NADPH, 37° C.; for CLint scaled: pH 7.4, in vivo CLint extrapolated; for T1/2: 0.5 mg protein/mL
Protocol: Human or rat liver microsomes incubations were conducted in duplicate in polypropylene tubes. The typical incubation mixtures consisted of human or rat liver microsomes (0.5 mg protein/mL), compounds of interest (5 μM) and NADPH (1.0 mM) in a total volume of 200 μL potassium phosphate buffer (PBS, 100 mM, pH 7.4). Compounds were dissolved in DMSO and diluted with PBS such that the final concentration of DMSO was 0.05%. The enzymatic reactions were commenced with the addition of protein after a 3-min preincubation and incubated in a water bath open to the air at 37° C. Reactions were terminated at various time points (0, 5, 10, 15, 30, 60 min) by adding equal volume of ice-cold acetonitrile. The samples were stored at −80° C. until LC/MS/MS assays.
The concentrations of compounds in the incubation mixtures of human or rat liver microsomes were determined by a LC/MS/MS method. The ranges of the linearity in the concentration range were determined for each tested compounds.
A parallel incubation was performed using denatured microsomes as the negative control, and reactions were terminated at various time points (0, 15, 60 min) after incubation at 37° C.
Dextromethorphan (70 μM) was selected as the positive control, and reactions were terminated at various time points (0, 5, 10, 15, 30, 60 min) after incubation at 37° C. Both positive and negative control samples were included in each assay to ensure the integrity of the microsomal incubation system.
Alternatively, the stability of some of the compounds disclosed herein in human (or rat) liver microsomes were also conducted in the following protocol. The incubations were conducted in duplicate in polypropylene tubes. The typical incubation mixtures consisted of liver microsomes (final concentration: 0.5 mg protein/mL), compounds (final concentration: 1.5 μM) in a total volume of 30 μL K-buffer (contain 1.0 mM EDTA, 100 mM, pH7.4). Compounds were dissolved in DMSO and diluted with K-buffer such that the final concentration of DMSO was 0.2%. The enzymatic reactions were commenced with the addition of 15 μL of NADPH (final concentration: 2 mM) after 10 min preincubation and incubated in a 37° C. incubator. Reactions were terminated at various time points (0, 15, 30, 60 min) by adding 135 μL acetonitrile (contain IS). Protein is removed by centrifugation with 4000 rpm, 10 min. Supernatant was collected for LCMS/MS analysis
In the above protocol, ketanserin (1 μM) was selected as the positive control, and reactions were terminated at various time points (0, 15, 30, 60 min) after incubation at 37° C. The positive control sample was included in each assay to ensure the integrity of the microsomal incubation system.
The concentrations of compounds in human or rat liver microsome incubations were plotted as a percentage of the relevant zero time point control for each reaction. The in vivo CLint were extrapolated (ref: Naritomi, Y.; Terashita, S.; Kimura, S.; Suzuki, A.; Kagayama, A.; and Sugiyama, Y.; Prediction of human hepatic clearance from in vivo animal experiments and in vitro metabolic studies with liver microsomes from animals and humans. Drug Metab. Dispos., 2001, 29: 1316-1324).

Axl (h) = biological target: T1, Axl (h) (Homo sapiens, UniProt P30530); experiment: Axl (h) kinase assay; type: biochemical
T1 construct: purchased Millipore UK Ltd
T1 sequence (P30530 26-894): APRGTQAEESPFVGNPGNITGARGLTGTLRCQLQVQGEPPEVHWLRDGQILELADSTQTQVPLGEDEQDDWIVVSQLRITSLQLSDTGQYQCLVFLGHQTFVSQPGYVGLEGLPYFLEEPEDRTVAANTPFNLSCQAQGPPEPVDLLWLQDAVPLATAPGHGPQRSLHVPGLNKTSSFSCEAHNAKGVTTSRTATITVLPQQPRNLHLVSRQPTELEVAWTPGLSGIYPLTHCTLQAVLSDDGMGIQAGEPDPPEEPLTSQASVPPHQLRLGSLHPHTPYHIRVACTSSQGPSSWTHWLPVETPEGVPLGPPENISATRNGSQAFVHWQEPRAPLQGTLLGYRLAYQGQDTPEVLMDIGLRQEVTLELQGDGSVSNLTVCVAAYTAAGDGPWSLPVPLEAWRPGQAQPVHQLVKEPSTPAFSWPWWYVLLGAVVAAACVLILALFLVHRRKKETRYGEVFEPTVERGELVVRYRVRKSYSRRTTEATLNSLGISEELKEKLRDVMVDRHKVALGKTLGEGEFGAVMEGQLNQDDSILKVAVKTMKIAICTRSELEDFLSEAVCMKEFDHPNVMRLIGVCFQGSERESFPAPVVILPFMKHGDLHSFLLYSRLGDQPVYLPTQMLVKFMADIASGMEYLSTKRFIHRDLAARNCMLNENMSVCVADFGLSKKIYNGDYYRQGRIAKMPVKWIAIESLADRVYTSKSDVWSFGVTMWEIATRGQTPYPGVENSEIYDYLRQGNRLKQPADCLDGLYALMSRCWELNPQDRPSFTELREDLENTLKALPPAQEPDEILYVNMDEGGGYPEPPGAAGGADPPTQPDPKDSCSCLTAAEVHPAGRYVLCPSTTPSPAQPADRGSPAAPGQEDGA
Protocol: The above assay procedure can be used to determine the IC50 for inhibition and/or the inhibition constant, Ki. The IC50 is defined as the concentration of compound required to reduce the enzyme activity by 50% under the condition of the assay. The IC50 value is estimated by preparing a 10 point curve using a 1/2 log dilution series (for example, a typical curve may be prepared using the following compound concentrations: 10 μM, 3 μM, 1 μM, 0.3 μM, 0.1 μM, 0.03 μM, 0.01 μM, 0.003 μM, 0.001 μM and 0 μM).
Axl (h) is incubated with 8 mM MOPS pH 7.0, 0.2 mM EDTA, 250 μM KKSRGDYMTMQIG, 10 mM MgAcetate and [γ-^33P-ATP] (specific activity approx. 500 cpm/pmol, concentration as required). The reaction is initiated by the addition of the MgATP mix. After incubation for 40 minutes at room temperature, the reaction is stopped by the addition of 3% phosphoric acid solution. 10 μL of the reaction is then spotted onto a P30 filtermat and washed three times for 5 minutes in 75 mM phosphoric acid and once in methanol prior to drying and scintillation counting.
The kinase assays described herein were performed at Millipore UK Ltd, Dundee Technology Park, Dundee DD2 1SW, UK.

| half-life [1] | CLint scaled [1] | T1/2 [1] | IC50 (Axl (h)) | SMILES |
| --- | --- | --- | --- | --- |
| 4.07 h | 7.13 mL/min/kg | – | – | O=C(Nc1ccc(Oc2ccnc(NC(=O)C3CC3)c2)cc1)c1c2n(n(-c3ccccc3)c1=O)CCC2 [Ex. 2, N-(4-((2-(cyclopropanecarboxamido)pyridin-4-yl)oxy)phenyl)-2-oxo-1-phenyl-2,4,5,6-tetrahydro-1H-pyrrolo[1,2-b]pyrazole-3-carboxamide] |
| 32.2 h | 0.9 mL/min/kg | – | – | CC(=O)Nc1cc(Oc2ccc(NC(=O)c3c4n(n(-c5ccccc5)c3=O)CCC4)cc2)ccn1 [Ex. 3, N-(4-((2-acetamidopyridin-4-yl)oxy)phenyl)-2-oxo-1-phenyl-2,4,5,6-tetrahydro-1H-pyrrolo[1,2-b]pyrazole-3-carboxamide] |
| – | – | ∞ | 14 nM | CC(=O)Nc1cc(Oc2ccc(NC(=O)c3c4n(n(-c5ccccc5)c3=O)CCOC4)nc2)ccn1 [Ex. 12, N-(5-((2-acetamidopyridin-4-yl)oxy)pyridin-2-yl)-2-oxo-1-phenyl-2,4,6,7-tetrahydro-1H-pyrazolo[5,1-c][1,4]oxazine-3-carboxamide] |
| 8.47 h | 3.42 mL/min/kg | – | 7 nM | O=C(Nc1ccc(Oc2ccnc(NC(=O)C3CC3)c2)cn1)c1c2n(n(-c3ccccc3)c1=O)CCC2 [Ex. 14, N-(5-((2-(cyclopropanecarboxamido)pyridin-4-yl)oxy)pyridin-2-yl)-2-oxo-1-phenyl-2,4,5,6-tetrahydro-1H-pyrrolo[1,2-b]pyrazole-3-carboxamide] |
| – | – | ∞ | 5 nM | O=C(Nc1ccc(Oc2ccnc(NC(=O)C3CC3)c2)cc1)c1c2n(n(-c3ccccc3)c1=O)CCOC2 [Ex. 19, N-(4-((2-(cyclopropanecarboxamido)pyridin-4-yl)oxy)phenyl)-2-oxo-1-phenyl-2,4,6,7-tetrahydro-1H-pyrazolo[5,1-c][1,4]oxazine-3-carboxamide] |
